This experiment deals with T1, RePC (Rhizobium etli pyruvate carboxylase) (Rhizobium etli, UniProt Q2K340).
T1 sequence (Q2K340 1-1154): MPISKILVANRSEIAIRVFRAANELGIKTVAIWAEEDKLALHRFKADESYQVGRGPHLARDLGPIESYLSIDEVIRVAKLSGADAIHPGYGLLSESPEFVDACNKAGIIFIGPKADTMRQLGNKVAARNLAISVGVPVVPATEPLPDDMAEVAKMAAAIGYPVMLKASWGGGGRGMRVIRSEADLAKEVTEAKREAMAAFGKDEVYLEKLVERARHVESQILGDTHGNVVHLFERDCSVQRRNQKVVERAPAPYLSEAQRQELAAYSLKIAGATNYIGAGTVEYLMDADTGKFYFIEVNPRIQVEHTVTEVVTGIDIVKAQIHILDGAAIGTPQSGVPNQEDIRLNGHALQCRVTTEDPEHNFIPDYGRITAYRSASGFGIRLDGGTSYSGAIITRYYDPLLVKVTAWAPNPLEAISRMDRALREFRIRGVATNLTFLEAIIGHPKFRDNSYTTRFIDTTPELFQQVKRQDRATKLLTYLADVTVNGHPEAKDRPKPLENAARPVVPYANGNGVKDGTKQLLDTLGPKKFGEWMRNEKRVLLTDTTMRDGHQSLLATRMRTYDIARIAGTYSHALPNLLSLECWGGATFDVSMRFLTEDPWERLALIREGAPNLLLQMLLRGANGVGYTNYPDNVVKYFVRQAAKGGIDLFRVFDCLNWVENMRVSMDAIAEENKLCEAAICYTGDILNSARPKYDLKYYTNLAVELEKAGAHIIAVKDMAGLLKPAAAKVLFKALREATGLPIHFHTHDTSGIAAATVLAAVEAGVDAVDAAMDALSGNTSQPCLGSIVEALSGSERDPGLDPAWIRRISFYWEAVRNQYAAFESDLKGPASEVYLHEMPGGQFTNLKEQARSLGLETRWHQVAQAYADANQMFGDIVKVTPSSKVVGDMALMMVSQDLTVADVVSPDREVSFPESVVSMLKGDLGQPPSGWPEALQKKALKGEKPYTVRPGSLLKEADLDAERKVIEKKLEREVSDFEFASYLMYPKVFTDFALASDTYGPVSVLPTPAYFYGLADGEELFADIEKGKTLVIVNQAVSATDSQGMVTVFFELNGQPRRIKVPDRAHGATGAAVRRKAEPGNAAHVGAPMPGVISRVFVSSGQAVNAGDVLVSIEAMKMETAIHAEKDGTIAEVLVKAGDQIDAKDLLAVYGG
In kind it is biochemical. The conditions noted are these: read-out: % inhibition at 20 mM.

Regarding `NC(=O)C(=O)O` [oxamate], the inhibition (in general, the share of the control response that was lost under treatment) at 20000 µM amounted to 68%.
